Columns and labels:
Format in all cases: cell-based, Escherichia coli
[1] = tested on: wild-type (WT) K-12-Pore; test: microbe, parasite or virus in culture; conditions: technical duplicate; for Minimum inhibitory concentration (MIC), Pore K-12: Table 10, with pore; for Minimum inhibitory concentration, K-12 (WT)-Pore: Table 14A, porinated
Outline: (§1)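 E. coli strains carrying a genomically integrated constitutive fhuA ΔC/Δ4L pore were grown 18 h in LB at 37 °C, then diluted 1/2000 in MHB II from OD600 ~1.0. Compounds were tested in duplicate, 2-fold serial titration, for 18 h at 37 °C with shaking. MIC came from OD600 with the pre-incubation background subtracted.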

[2] = tested on: ΔtolC-Pore; test: microbe, parasite or virus in culture; conditions: technical duplicate; for Minimum inhibitory concentration (MIC), Pore ΔtolC: Table 10, with pore; for Minimum inhibitory concentration, ΔtolC-Pore: Table 14A, porinated
Outline: as §1

[3] = tested on: EKO-35 araC::acrEF Pore; test: MIC susceptibility profiling, porinated efflux platform; conditions: for Fold changes of MICs: EKO-35 araC::acrEF Pore compared to EKO-35-Pore; for Minimum inhibitory concentration, EKO-35 araC::acrEF Pore: Table 14A, porinated, technical duplicate
Outline: as §1

[4] = tested on: EKO-35 araC::macAB Pore; test: as above; conditions: for Fold changes of MICs: EKO-35 araC::macAB Pore compared to EKO-35-Pore; for Minimum inhibitory concentration: EKO-35 araC::macAB Pore, technical duplicate
Outline: as §1

[5] = tested on: EKO-35 araC::emrKY Pore; test: as above; conditions: for Fold changes of MICs: EKO-35 araC::emrKY Pore compared to EKO-35-Pore; for Minimum inhibitory concentration: EKO-35 araC::emrKY Pore, technical duplicate
Outline: as §1

[6] = tested on: EKO-35 araC::mdtEF Pore; test: as above; conditions: for Fold changes of MICs: EKO-35 araC::mdtEF Pore compared to EKO-35-Pore; for Minimum inhibitory concentration, EKO-35 araC::mdtEF Pore: Table 14A, porinated, technical duplicate
Outline: as §1

[7] = tested on: E. coli EKO-35; test: microbe, parasite or virus in culture; conditions: for Fold change of MICs: EKO-35 compared to EKO-35 (reference); for Minimum inhibitory concentration (MIC), EKO-35: Table 10, without pore; for Minimum inhibitory concentration (MIC), EKO-35 / Minimum Inhibitory Concentration, EKO-35: technical duplicate; for Minimum Inhibitory Concentration, EKO-35: Table 13A, non-porinated
Outline: (§2)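 Strains are grown overnight in LB at 37 °C, adjusted to OD600 ~1.0 in PBS (pH 7.4) and diluted 1/2000 into MHB II. They are incubated with twofold compound dilutions for 18 h at 37 °C. MIC comes from background-subtracted OD600.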

[8] = tested on: E. coli ΔtolC; test: microbe, parasite or virus in culture; conditions: technical duplicate; for Minimum inhibitory concentration (MIC), ΔtolC: Table 10, without pore; for Minimum Inhibitory Concentration, ΔtolC: Table 13A, non-porinated
Outline: as §2

[9] = tested on: wild-type E. coli K-12 str. BW25113; test: microbe, parasite or virus in culture; conditions: technical duplicate; for Minimum inhibitory concentration (MIC), K-12: Table 10, without pore; for Minimum Inhibitory Concentration, K-12: Table 13A, non-porinated
Outline: as §2

[10] = tested on: EKO-35 araC::acrB; test: MIC susceptibility profiling, efflux platform; conditions: for Fold change of MICs: EKO-35 araC::acrB compared to EKO-35; for Minimum Inhibitory Concentration, EKO-35 araC::acrB: Table 13A, non-porinated, technical duplicate
Outline: as §2

[11] = tested on: EKO-35 araC::acrD; test: MIC susceptibility profiling, efflux platform; conditions: for Fold change of MICs: EKO-35 araC::acrD compared to EKO-35; for Minimum Inhibitory Concentration, EKO-35 araC::acrD: Table 13A, non-porinated, technical duplicate
Outline: as §2

[12] = tested on: EKO-35 araC::emrKY; test: MIC susceptibility profiling, efflux platform; conditions: for Fold change of MICs: EKO-35 araC::emrKY compared to EKO-35; for Minimum Inhibitory Concentration, EKO-35 araC::emrKY: Table 13B, non-porinated, technical duplicate
Outline: as §2

[13] = tested on: EKO-35 araC::mdtEF; test: MIC susceptibility profiling, efflux platform; conditions: for Fold change of MICs: EKO-35 araC::mdtEF compared to EKO-35; for Minimum Inhibitory Concentration, EKO-35 araC::mdtEF: Table 13A, non-porinated, technical duplicate
Outline: as §2

[14] = tested on: EKO-35 araC::acrEF; test: MIC susceptibility profiling, efflux platform; conditions: for Fold change of MICs: EKO-35 araC::acrEF compared to EKO-35; for Minimum Inhibitory Concentration, EKO-35 araC::acrEF: Table 13A, non-porinated, technical duplicate
Outline: as §2

[15] = tested on: EKO-35 araC::mexCD (MexCD from P. aeruginosa); test: MIC susceptibility profiling, efflux platform; conditions: for Fold change of MICs: EKO-35 araC::mexCD compared to EKO-35; for Minimum Inhibitory Concentration, EKO-35 araC::mexCD: Table 13B, non-porinated, technical duplicate
Outline: as §2

[16] = tested on: EKO-35 araC::macAB; test: MIC susceptibility profiling, efflux platform; conditions: for Fold change of MICs: EKO-35 araC::macAB compared to EKO-35; for Minimum Inhibitory Concentration, EKO-35 araC::macAB: Table 13B, non-porinated, technical duplicate
Outline: as §2

[17] = tested on: EKO-35 araC::mdtBC; test: MIC susceptibility profiling, efflux platform; conditions: for Fold change of MICs: EKO-35 araC::mdtBC compared to EKO-35; for Minimum Inhibitory Concentration, EKO-35 araC::mdtBC: Table 13B, non-porinated, technical duplicate
Outline: as §2

[18] = tested on: EKO-35 araC::acrBD408A; test: MIC susceptibility profiling, efflux platform; conditions: for Fold change of MICs: EKO-35 araC::acrBD408A compared to EKO-35; for Minimum Inhibitory Concentration, EKO-35 araC::acrBD408A: Table 13B, non-porinated, technical duplicate
Outline: as §2

[19] = tested on: EKO-35 araC::emrAB; test: MIC susceptibility profiling, efflux platform; conditions: for Fold change of MICs: EKO-35 araC::emrAB compared to EKO-35; for Minimum Inhibitory Concentration, EKO-35 araC::emrAB: Table 13B, non-porinated, technical duplicate
Outline: as §2

Structure (SMILES) | Minimum inhibitory concentration (MIC), Pore K-12 [1] [µg/mL] | Minimum inhibitory concentration, K-12 (WT)-Pore [1] [µg/mL] | Minimum inhibitory concentration (MIC), Pore ΔtolC [2] [µg/mL] | Minimum inhibitory concentration, ΔtolC-Pore [2] [µg/mL] | Fold changes of MICs [3] [fold] | Minimum inhibitory concentration, EKO-35 araC::acrEF Pore [3] [µg/mL] | Fold changes of MICs [4] [fold] | Minimum inhibitory concentration [4] [µg/mL] | Fold changes of MICs [5] [fold] | Minimum inhibitory concentration [5] [µg/mL] | Minimum inhibitory concentration, EKO-35 araC::mdtEF Pore [6] [µg/mL] | Fold change of MICs [7] [fold] | Minimum inhibitory concentration (MIC), EKO-35 [7] [µg/mL] | Minimum Inhibitory Concentration, EKO-35 [7] [µg/mL] | Minimum inhibitory concentration (MIC), ΔtolC [8] [µg/mL] | Minimum Inhibitory Concentration, ΔtolC [8] [µg/mL] | Minimum inhibitory concentration (MIC), K-12 [9] [µg/mL] | Minimum Inhibitory Concentration, K-12 [9] [µg/mL] | Fold change of MICs [10] [fold] | Minimum Inhibitory Concentration, EKO-35 araC::acrB [10] [µg/mL] | further results
Cn1cc(Br)c(-c2cccc(NC(=O)Nc3ccc(OC(F)(F)F)cc3)c2)n1 [compound 14] | 320 | 320 | 1.25 | 1.25 | 1 | 320 | 1 | 320 | 1 | 320 | 320 | 1 | 320 | 320 | 2.5 | 2.5 | 320 | 320 | 1 | 320 | Fold changes of MICs [6]: 1 fold; Fold change of MICs [11]: 1 fold; Minimum Inhibitory Concentration, EKO-35 araC::acrD [11]: 320 µg/mL; Fold change of MICs [12]: 1 fold; Minimum Inhibitory Concentration, EKO-35 araC::emrKY [12]: 320 µg/mL; Fold change of MICs [13]: 1 fold; Minimum Inhibitory Concentration, EKO-35 araC::mdtEF [13]: 320 µg/mL; Fold change of MICs [14]: 1 fold; Minimum Inhibitory Concentration, EKO-35 araC::acrEF [14]: 320 µg/mL; Fold change of MICs [15]: 1 fold; Minimum Inhibitory Concentration, EKO-35 araC::mexCD [15]: 320 µg/mL; Fold change of MICs [16]: 1 fold; Minimum Inhibitory Concentration, EKO-35 araC::macAB [16]: 320 µg/mL; Fold change of MICs [17]: 1 fold; Minimum Inhibitory Concentration, EKO-35 araC::mdtBC [17]: 320 µg/mL; Fold change of MICs [18]: 1 fold; Minimum Inhibitory Concentration, EKO-35 araC::acrBD408A [18]: 320 µg/mL; Fold change of MICs [19]: 1 fold; Minimum Inhibitory Concentration, EKO-35 araC::emrAB [19]: 320 µg/mL
O=c1oc(-c2ccccc2Cl)nn1-c1ccc(C(F)(F)F)cn1 [compound 5] | 320 | 320 | 2.5 | 2.5 | 16 | 320 | 1 | 10 | 1 | 10 | 320 | 1 | 20 | 20 | 10 | 10 | 320 | 320 | 16 | 320 | susceptibility of EKO-35 to the compound ([7]; synthetic efflux substrates of FIG. 12): susceptible; Fold change of MICs [11]: 2 fold; Minimum Inhibitory Concentration, EKO-35 araC::acrD [11]: 40 µg/mL; Fold change of MICs [12]: 1 fold; Minimum Inhibitory Concentration, EKO-35 araC::emrKY [12]: 20 µg/mL; Fold change of MICs [13]: 16 fold; Minimum Inhibitory Concentration, EKO-35 araC::mdtEF [13]: 320 µg/mL; Fold change of MICs [14]: 16 fold; Minimum Inhibitory Concentration, EKO-35 araC::acrEF [14]: 320 µg/mL; Fold change of MICs [15]: 16 fold; Minimum Inhibitory Concentration, EKO-35 araC::mexCD [15]: 320 µg/mL; Fold change of MICs [16]: 1 fold; Minimum Inhibitory Concentration, EKO-35 araC::macAB [16]: 20 µg/mL; Fold change of MICs [17]: 1 fold; Minimum Inhibitory Concentration, EKO-35 araC::mdtBC [17]: 10 µg/mL; Fold change of MICs [18]: 1 fold; Minimum Inhibitory Concentration, EKO-35 araC::acrBD408A [18]: 20 µg/mL; Fold change of MICs [19]: 16 fold; Minimum Inhibitory Concentration, EKO-35 araC::emrAB [19]: 320 µg/mL
O=C(Nc1ccccc1C(=O)Nc1nnc(C(F)(F)F)s1)c1ccccc1Cl [compound 19] | 320 | 320 | 0.625 | 0.625 | 1 | 320 | 1 | 320 | 1 | 320 | 320 | 1 | 320 | 320 | 2.5 | 2.5 | 320 | 320 | 1 | 320 | Fold changes of MICs [6]: 1 fold; Fold change of MICs [11]: 1 fold; Minimum Inhibitory Concentration, EKO-35 araC::acrD [11]: 320 µg/mL; Fold change of MICs [12]: 1 fold; Minimum Inhibitory Concentration, EKO-35 araC::emrKY [12]: 320 µg/mL; Fold change of MICs [13]: 1 fold; Minimum Inhibitory Concentration, EKO-35 araC::mdtEF [13]: 320 µg/mL; Fold change of MICs [14]: 1 fold; Minimum Inhibitory Concentration, EKO-35 araC::acrEF [14]: 320 µg/mL; Fold change of MICs [15]: 1 fold; Minimum Inhibitory Concentration, EKO-35 araC::mexCD [15]: 320 µg/mL; Fold change of MICs [16]: 1 fold; Minimum Inhibitory Concentration, EKO-35 araC::macAB [16]: 320 µg/mL; Fold change of MICs [17]: 1 fold; Minimum Inhibitory Concentration, EKO-35 araC::mdtBC [17]: 320 µg/mL; Fold change of MICs [18]: 1 fold; Minimum Inhibitory Concentration, EKO-35 araC::acrBD408A [18]: 320 µg/mL; Fold change of MICs [19]: 1 fold; Minimum Inhibitory Concentration, EKO-35 araC::emrAB [19]: 320 µg/mL

Source: patent US20230407243A1, “GENETIC PLATFORM TO INVESTIGATE THE FUNCTIONS OF BACTERIAL DRUG EFFLUX PUMPS” (priority 2022, published 2023)
